Read-outs that look alike come from different tables or passages of the source.
Experiments:
[1] = system: tonic seizures induced by 26 mA corneal stimulation; settings: Compound A i.v. 60 minutes before electroshock, female NMRI mice
Excerpt: After administration of vehicle or test substance female NMRI mice were stimulated with 26 mA for 0.3 seconds, using corneal stimulation (Rodent Shocker, Hugo Sachs Electronic, Germany). In presence of tonic seizure the mice was labeled 0% protection and if no tonic seizure was detected the mice was labeled 100% protection. Results were plotted as a function of logarithmic dose and fitted to a sigmoid-dose response (with variable slope (GraphPad Prism, ver. 4) and used to estimate the dose that would give a 50% protection from seizures (N=6/group).
Vehicle (5% chremophor) was dosed p.o.

[2] = 10 mg/kg i.v. with Verapamil I.C.V. versus Compound A only; mice; 5-60 minutes
Experimental: 16 NMRI-mice were allocated into 4 groups. The animals were anesthetised in 1.5% Isuflurane and 20% O2. […] At different time point (5 minutes, 15 minutes, 30 minutes and 60 minutes) after dosing the animals were killed by decapitation and blood and brain were collected. The EDTA stabilised blood was centrifugation at 4000 rpm for 20 minutes at 4° C. Plasma and brain samples were stored at −20° C. pending analysis.
Plasma and brain samples were analysed using LC-MS/MS (Quattro Ultimo Platinum with Acquility solvent and sample manager, Waters) in positive electrospray 10 ionisation and multiple reaction monitoring mode. The analytical column was a UPLC Acquility BEH C18 (1.7 μm) 1.0×50 mm (Waters) with gradient elution at a 0.13 ml/min flow rate. The initial mobile phase was 20% methanol/80% formic acid changed to 90% methanol/10% formic acid over a time period of 1.7 min.
Samples were centrifuged for 25 minutes at 5° C., 14000 rpm and 3 μl of the supernatants were injected onto the LC-column.
Brain tissue (0.1 g) was weighed out on top of a tube containing 0.8 ml bead (1.0 mm Zirconia from BioSpec Products). […]
Samples were quantified based on standard curves (linear, 1/×weighting), prepared in plasma and brain tissue respectively.

P-gp = settings: inhibition of P-gp in phenytoin-treated chronic epileptic rats; cited from earlier work

Structure (SMILES): CN1CCc2c(-c3ccc(S(=O)(=O)N(C)C)cc3)cc3c(c2C1)NC(=O)C3=NOC(CCO)C(=O)O (stereo not shown) [Compound A, 8-Methyl-5-(4-(N,N-dimethyl-sulfamoyl)phenyl)-6,7,8,9-tetrahydro-1H-pyrrolo[3,2h]-isoqinoline-2,3-dione-3-O-(4-hydroxybutyric acid-2-yl)oxime]
- ED50, protection against tonic seizures ([1]; pretreatment with Tariquidar 24 mg/kg p.o. 120 minutes before): 24 mg/kg
- ED50, protection against tonic seizures ([1]; with vehicle (5% chremophor p.o.)): 31.5 mg/kg
- brain exposure of Compound A [2]: increase in brain exposure

Structure (SMILES): COc1cc2c(cc1OC)CN(CCc1ccc(NC(=O)c3cc(OC)c(OC)cc3NC(=O)c3cnc4ccccc4c3)cc1)CC2 [Tariquidar]
- seizure control (P-gp): improves seizure control
